Each structure is given as a SMILES string. ± gives the expanded uncertainty stated by the source.

For the data set the following is noted: Liquid; pulse heating to limit of superheat.
Regarding `Cc1ccccc1C(=O)O` [2-methylbenzoic acid], the Critical pressure stood at 3920 ± 240 kPa and the Critical temperature is given as 763 ± 16 K.

With `CC(C)(CO)CO` [2,2-dimethyl-1,3-propanediol], the Critical pressure worked out at 4200 ± 400 kPa and the Critical temperature stood at 687 ± 20 K.

On to `Cc1ccc(C(=O)O)cc1` [4-methylbenzoic acid], for which the Critical pressure came to 3800 ± 200 kPa and the Critical temperature was found to be 775 ± 16 K.

Turning to `Cc1cccc(C(=O)O)c1` [3-methylbenzoic acid], the Critical pressure was 3850 ± 240 kPa and the Critical temperature was found to be 771 ± 16 K.

In the case of `O=Cc1ccccc1` [benzaldehyde], the Critical pressure is recorded as 4410 ± 200 kPa and the Critical temperature amounted to 692 ± 14 K.

Regarding `Cc1ccc(C=O)cc1` [4-methylbenzaldehyde], the Critical pressure was found to be 3800 ± 200 kPa and the Critical temperature was determined as 712 ± 14 K.

On to `OCCCO` [propan-1,3-diol], for which the Critical pressure is given as 6380 ± 520 kPa and the Critical temperature amounted to 721 ± 22 K.

Consider `CCCCCCCCCCCCCCCC(=O)OC` [methyl hexadecanoate], for which the Critical pressure is 1170 ± 80 kPa and the Critical temperature is on record as 760 ± 16 K.

`OCc1ccccc1` [benzenemethanol]: the Critical pressure was determined as 4330 ± 200 kPa and the Critical temperature is 713 ± 14 K.

`CCCCCCCCCCCCCC(=O)OC` [methyl tetradecanoate]: the Critical pressure stood at 1320 ± 80 kPa and the Critical temperature is 730 ± 14 K.

Consider `CCCCCCCC/C=C\CCCCCCCC(=O)OC` [methyl cis-9-octadecenoate], for which the Critical pressure came out at 1210 ± 80 kPa and the Critical temperature is 777 ± 16 K.

Regarding `O=C(O)c1ccccc1` [benzoic acid], the Critical pressure is listed as 4530 ± 200 kPa and the Critical temperature is recorded as 755 ± 16 K.

Turning to `CCCCCCCCCCCCCCCCCC(=O)OC` [methyl octadecanoate], the Critical pressure is on record as 1080 ± 60 kPa and the Critical temperature came out at 785 ± 16 K.

Turning to `Cc1ccc(CO)cc1` [1-(hydroxymethyl)-4-methylbenzene], the Critical pressure is 3610 ± 200 kPa and the Critical temperature came to 719 ± 14 K.

As to `O=Cc1ccccc1C(=O)O` [2-carboxybenzaldehyde], the Critical pressure is 4800 ± 300 kPa and the Critical temperature was found to be 864 ± 18 K.

The record behind these values is the NIST ThermoML archive (doi:10.1016/j.fluid.2014.07.038).
